Source: US20230312524A1, “ALPHA1A-ADRENERGIC RECEPTOR AGONISTS AND METHODS OF USE” (CuraSen Therapeutics, Inc., priority 2020, published 2023)
Where two headings read alike, the source gives them in different places.

Target: T1, α1A-ARS (Homo sapiens, UniProt P35348)
T1 sequence (P35348 1-466): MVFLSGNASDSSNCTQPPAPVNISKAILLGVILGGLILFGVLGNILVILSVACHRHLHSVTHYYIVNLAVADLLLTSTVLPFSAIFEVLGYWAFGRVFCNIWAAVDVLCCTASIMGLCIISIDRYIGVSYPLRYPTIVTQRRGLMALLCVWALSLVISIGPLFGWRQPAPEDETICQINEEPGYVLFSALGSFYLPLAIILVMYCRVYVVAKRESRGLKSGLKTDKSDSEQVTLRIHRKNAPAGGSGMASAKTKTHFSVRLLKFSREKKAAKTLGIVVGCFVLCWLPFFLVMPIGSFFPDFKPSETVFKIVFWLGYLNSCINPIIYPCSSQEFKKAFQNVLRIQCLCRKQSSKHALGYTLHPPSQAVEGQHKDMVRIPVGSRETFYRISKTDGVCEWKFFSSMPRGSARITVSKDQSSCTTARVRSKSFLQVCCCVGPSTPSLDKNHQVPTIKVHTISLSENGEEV
Assay: Calcium flux assay (Calcium 6 dye) in cells expressing an α1-AR
Type: cell-based
Conditions: for Emax: read-out: Average Emax; for EC50: mean of at least three experiments, read-out: Average PEC50
Text: Calcium flux experimental design: alpha-1 adrenergic receptors (α1-ARs) couple to Gq proteins, which results in downstream activation of phospholipase C and release of calcium from intracellular stores. Intracellular calcium increase upon α1-AR activation can be detected by Calcium 6 dye.
Cell preparation: cells expressing an α1-AR were washed in warmed phosphate-buffered saline to remove medium and harvested using versene (Caisson Labs, catalog #EDL01).
Media was removed from cells by tapping plates upside-down on absorbent wipes, followed by 15 second upside-down 50×g centrifugation, again on absorbent wipes. 12 μL cell dye solution was added to cells using a reagent dispenser (Integra viaFILL) and cells were incubated for 90 minutes at 37° C., 5% CO2.
Compound preparation: candidate alpha-adrenergic compounds, dissolved to 10 mM in DMSO, were diluted in_assay buffer (HBSS/H-EPES containing 2 mM CaCl2 and 2 mM probenecid sodium salt). […] On all assay plates, vehicle (DMSO) and positive control (10 μM epinephrine) conditions were included on the plate, as well as a dose-response curve of epinephrine. […] 384 well compound plates were centrifuged briefly at 250×g, sealed (Axygen PCR-SP) and incubated at 37° C. until the 90 minute cell dye incubation was complete.
Calcium 6 stained cells and 384 well compound plates were loaded onto the Flexstation and incubated on the machine for 5 minutes before initiating the assay.
For each assay well, baseline Calcium 6 fluorescence was detected for 18 seconds prior to 12 μL compound addition at 12 μL per second. Changes in Calcium 6 fluorescence were detected for a further 22 seconds, for a total read time of 40 seconds. All detection was performed with medium gain sensitivity, bottom read, with 6 flashes per read.
Data analysis: for calcium flux, analysis of maximum change from baseline over the 40-second read time was determined using Softmax Pro and data was exported as raw text files. Potency estimates (EC50) were derived from dose response curves (maximum change from baseline versus the log concentration of test compound) fit by four-parameter nonlinear regression using Graphpad Prism. Efficacy was determined by comparing the magnitude of the test compound signal window (fitted curve max−min) with the signal window of the full agonist control, epinephrine. […] All experiments were repeated a minimum of three times, with the average (mean) potency and maximum effect relative to the within-plate full agonist dose-response comparator reported.

[1] = calcium flux, α1A-AR, maximum effect relative to full agonist epinephrine

Row | Emax [1] [%] | SMILES | EC50 (calcium flux, α1A-AR) [nM] | Emax [%]
1 | 21 to 60 | CCc1c(CC2=NCCN2)ccc(S(C)(=O)=O)c1Cl [Compound 144] | > 1000 | –
2 | > 61 | Clc1ccc(CC2=NCCN2)c(-c2ccco2)c1 [Compound 30] | < 9.77 | –
3 | > 61 | CCc1cc(S(=O)(=O)C(F)(F)F)ccc1CC1=NCCN1 [Compound 111] | 10 to 977 | –
4 | – | Cc1cc(Cl)cc(C)c1CC1=NCCN1 [Compound 123] | 10 to 977 | > 61
5 | – | Cc1c(Cl)cccc1CC1=NCCN1 [Compound 89] | > 1000 | 21 to 60
6 | > 61 | Cc1c(CC2=NCCN2)ccc(S(=O)(=O)CF)c1Cl [Compound 140] | > 1000 | –
7 | – | Cc1oc2ccc(CC3=NCCN3)cc2c1C [Compound 42] | > 1000 | < 20
8 | > 61 | Fc1ccc(CC2=NCCN2)c(-c2ccccc2)c1 [Compound 79] | < 9.77 | –
9 | – | Cc1cc(F)ccc1CC1=NCCN1 [Compound 73] | 10 to 977 | 21 to 60
10 | < 20 | Clc1cn(-c2cn[nH]c2)c2cc(CC3=NCCN3)ccc12 [Compound 62] | > 1000 | –
11 | 21 to 60 | FC(F)(F)c1ccc(CC2=NCCN2)c(N2CCCCC2)c1 [Compound 69] | 10 to 977 | –
12 | – | Cc1coc2c(CC3=NCCN3)cccc12 [Compound 60] | 10 to 977 | 21 to 60
13 | – | Clc1ccc(CC2=NCCN2)cc1 [Compound 152] | > 1000 | < 20
14 | > 61 | Clc1ccc(CC2=NCCN2)c(-n2cccn2)c1 [Compound 21] | 10 to 977 | –
15 | – | Cc1cc(OC(F)F)ccc1CC1=NCCN1 [Compound 129] | 10 to 977 | 21 to 60
16 | < 20 | Cc1csc(-c2cccc(CC3=NCCN3)c2C)n1 [Compound 8] | > 1000 | –
17 | – | CCC(F)(F)c1cc(Cl)ccc1CC1=NCCN1 [Compound 121] | 10 to 977 | 21 to 60
18 | – | FC(F)(F)c1ccc(CC2=NCCN2)c(Cl)c1 [Compound 133] | 10 to 977 | 21 to 60
19 | – | Cc1cc(OC(F)(F)F)ccc1CC1=NCCN1 [Compound 128] | 10 to 977 | 21 to 60
20 | – | COc1c(CC2=NCCN2)ccc2occc12 [Compound 47] | 10 to 977 | 21 to 60
21 | < 20 | Fc1ccc(CC2=NCCN2)c(N2CCOCC2)c1 [Compound 72] | > 1000 | –
22 | > 61 | Clc1ccc(CC2=NCCN2)c(-c2ncco2)c1 [Compound 13] | 10 to 977 | –
23 | 21 to 60 | Cc1c(CC2=NCCN2)cccc1-c1cc[nH]n1 [Compound 20] | 10 to 977 | –

Row | Emax [1] [%] | SMILES | EC50 (calcium flux, α1A-AR) [nM] | Emax [%]
24 | – | CC(F)(F)c1cc(OC(F)F)ccc1CC1=NCCN1 [Compound 151] | 10 to 977 | 21 to 60
25 | – | Cc1oc2c(CC3=NCCN3)cccc2c1C [Compound 45] | 10 to 977 | > 61
26 | – | C[C@@H](F)c1cc(Cl)ccc1CC1=NCCN1 [Compound 142] | 10 to 977 | 21 to 60
27 | – | Cc1cc(CC2=NCCN2)cc(C(F)(F)F)c1 [Compound 130] | 10 to 977 | > 61
28 | – | CCc1c(Cl)cccc1CC1=NCCN1 [Compound 99] | > 1000 | 21 to 60
29 | – | Cc1ccc(C(F)(F)F)cc1CC1=NCCN1 [Compound 127] | 10 to 977 | > 61
30 | > 61 | CCc1cc(S(=O)(=O)CF)ccc1CC1=NCCN1 [Compound 110] | 10 to 977 | –
31 | – | FC(F)c1ccc(CC2=NCCN2)c(Cl)c1 [Compound 138] | 10 to 977 | > 61
32 | 21 to 60 | Cn1nccc1-c1cc(Cl)ccc1CC1=NCCN1 [Compound 16] | 10 to 977 | –
33 | – | Cc1c(CC2=NCCN2)ccc2[nH]ncc12 [Compound 55] | 10 to 977 | 21 to 60
34 | < 20 | Cc1c(CC2=NCCN2)cccc1-c1cccs1 [Compound 26] | 10 to 977 | –
35 | < 20 | Cc1c(CC2=NCCN2)ccc(Cl)c1-c1cn[nH]c1 [Compound 17] | > 1000 | –
36 | < 20 | Clc1ccc(CC2=NCCN2)c(Cc2ccccc2)c1 [Compound 120] | > 1000 | –
37 | – | CCc1cc(Cl)ccc1CC1=NCCN1 [Compound 67] | 10 to 977 | > 61
38 | > 61 | Clc1ccc(CC2=NCCN2)c(-c2cccs2)c1 [Compound 28] | < 9.77 | –
39 | – | CC(C)c1cc(Cl)ccc1CC1=NCCN1 [Compound 84] | 10 to 977 | 21 to 60
40 | < 20 | Cn1nccc1-c1cc(CC2=NCCN2)ccc1Cl [Compound 11] | > 1000 | –
41 | – | Cc1cc(Cl)ccc1CC1=NCCN1 [Compound 38] | 10 to 977 | 21 to 60
42 | – | CC(C)(C)c1ccccc1CC1=NCCN1 [Compound 64] | > 1000 | < 20
43 | 21 to 60 | COCc1cc(Cl)ccc1CC1=NCCN1 [Compound 124] | 10 to 977 | –
44 | 21 to 60 | Cc1c(CC2=NCCN2)ccc(Cl)c1-c1ncco1 [Compound 14] | 10 to 977 | –
45 | > 61 | Clc1ccc(CC2=NCCN2)c(N2CCCC2)c1 [Compound 122] | 10 to 977 | –
46 | – | CC(C)Oc1cc(Cl)ccc1CC1=NCCN1 [Compound 102] | 10 to 977 | 21 to 60

Row | Emax [1] [%] | SMILES | EC50 (calcium flux, α1A-AR) [nM] | Emax [%]
47 | – | FC(F)(F)c1coc2c(CC3=NCCN3)cccc12 [Compound 92] | > 1000 | 21 to 60
48 | – | Cc1cc(C(F)(F)F)ccc1CC1=NCCN1 [Compound 66] | 10 to 977 | 21 to 60
49 | – | FCc1cc(Cl)ccc1CC1=NCCN1 [Compound 76] | 10 to 977 | 21 to 60
50 | < 20 | C[C@H](O)c1cc(Cl)ccc1CC1=NCCN1 [Compound 145] | > 1000 | –
51 | – | C[C@H](F)c1cc(Cl)ccc1CC1=NCCN1 [Compound 147] | 10 to 977 | 21 to 60
52 | 21 to 60 | CC(F)(F)c1cc(OC(F)(F)F)ccc1CC1=NCCN1 [Compound 162] | > 1000 | –
53 | – | Cc1c(CC2=NCCN2)ccc2c1CCO2 [Compound 58] | 10 to 977 | 21 to 60
54 | – | Fc1ccc(CC2=NCCN2)c(C(F)(F)F)c1 [Compound 80] | > 1000 | 21 to 60
55 | < 20 | Cc1csc(-c2ccc(CC3=NCCN3)cc2Cl)n1 [Compound 4] | > 1000 | –
56 | – | Cc1c(CC2=NCCN2)cc(Cl)c2[nH]ccc12 [Compound 100] | < 9.77 | > 61
57 | < 20 | Clc1cc(CC2=NCCN2)ccc1-c1ccn[nH]1 [Compound 2] | > 1000 | –
58 | < 20 | Clc1ccc(CC2=NCCN2)c(C2CCOCC2)c1 [Compound 118] | > 1000 | –
59 | > 61 | Clc1ccc(CC2=NCCN2)c(-c2ccccc2)c1 [Compound 74] | 10 to 977 | –
60 | – | Cc1oc2cc(CC3=NCCN3)ccc2c1C [Compound 43] | 10 to 977 | 21 to 60
61 | – | CCc1cc(C(F)(F)F)ccc1CC1=NCCN1 [Compound 78] | < 9.77 | > 61
62 | > 61 | Clc1ccc(CC2=NCCN2)c(-c2nccs2)c1 [Compound 25] | < 9.77 | –
63 | 21 to 60 | Cc1c(CC2=NCCN2)ccc(S(C)(=O)=O)c1Cl [Compound 139] | > 1000 | –
64 | > 61 | C[C@@H](O)c1ccc(CC2=NCCN2)c(Cl)c1 [Compound 164] | < 9.77 | –
65 | – | Cc1cc2cccc(CC3=NCCN3)c2o1 [Compound 59] | 10 to 977 | > 61
66 | 21 to 60 | Clc1ccc(CC2=NCCN2)cc1-n1cccn1 [Compound 23] | 10 to 977 | –
67 | – | FC(F)(F)c1cccc(CC2=NCCN2)c1Cl [Compound 131] | 10 to 977 | 21 to 60
68 | > 61 | CCc1c(CC2=NCCN2)ccc(S(=O)(=O)CF)c1Cl [Compound 141] | > 1000 | –
69 | – | Cc1c(CC2=NCCN2)cc(Cl)c2nn(C)cc12 [Compound 106] | 10 to 977 | 21 to 60
